Data set [1] concerns the target α-glucosidase. Kind of data set: α-glucosidase inhibition assay (p-NPG substrate). The class given is biochemical. Particulars: pH 6.8, 37°C. How it is done:
This experiment was carried out according to the literature ([11]). Briefly, the test sample was dissolved in solutions (SS) with DMSO as the solvent. p-NPG and α-glucosidase were, respectively mixed with phosphate buffer (PB, 60 mM phosphate, pH 6.8) and used as stock solutions. The concentration of α-glucosidase solution (GS) was 0.5 U/ml and that of p-NPG solution (NS) was 5 mM. In addition, four different solutions (A, B, C and D) were prepared: Solution A contained 112 μl PB, 20 μl GS, and 8 μl SS; Solution B contained 112 μl PB and 20 μl GS; Solution C contained 112 μl PB, 8 μl SS, and 20 μl GS; and Solution D contained 132 μl PB and 8 μl DMSO. After starting each reaction at 37°C, p-nitrophenol was quantified by measuring the absorbance at 405 nm with a UV–vis spectrophotometer. The inhibition rate was calculated according to equation (1):
(1) Inhibition rate (%)= [((Aas − Bas)[…]) / (Aas −Bas)][…],
where Aas, Bas, Cas and Das are the absorbances of solution A, B, C and D, respectively. The sample concentration that inhibited 50% α-glucosidase activity was defined as the IC50value.

The test system of data set [2] is α-glucosidase. Kind of data set: Enzyme kinetic experiments on α-glucosidase (reversibility, Lineweaver-Burk plots, secondary replot). The class given is biochemical. An excerpt:
The reversibility of enzyme inhibition can be determined according to the influence of sample concentration and enzyme concentration on enzyme activity. […] This implied that 1 was a reversible α-glucosidase inhibitor ([16]). The reversibility of the inhibition of α-glucosidase by different flavonoids has been studied extensively ([17]). However, definitive conclusions cannot been drawn about the relationship between the structure of flavonoids and the reversibility of the inhibition of α-glucosidase ([18]).
The double-reciprocal diagram, based on a Lineweaver–Burk plot, is widely used to investigate inhibitory kinetics of compounds on enzymes. […] Thus, the complex formed by the combination of compound 1 with substrate and α-glucosidase led to the inactivation of the latter. In addition, the number of binding sites between the compound and α-glucosidase can be obtained by a second linear fitting of the concentration of compound 1 and Y-intercept, which is shown in Figure 4D. […] Through further calculation, the binding constant was obtained as 4.58 × 10^4 L/mol. There were obvious differences in the inhibition mechanism of different types of flavonoids on α-glucosidase. […] The above facts indicate that the mechanisms of action of flavonoids on glucosidase are diverse and complex.

The test system of another data set is HepG2 cells. Kind of data set: Glucose consumption assay in HepG2 cells. Type of data set: cell-based. Conditions: 0.18 mg/L, 24 h, medium with 12.0 mM glucose. How it is done: Here, HepG2 cells were used to evaluate the glucose consumption of the isolated compounds according to a method described in the literature ([12]). Briefly, HepG2 cells were cultured for 24 h. Subsequently, they were transferred from DMEM medium (containing FBS, PEM and SM) to another DMEM medium (containing 12.0 mM glucose). Then, HepG2 cells and the test samples with a concentration of 0.18 mg/L were incubated together for another 24 h. The glucose consumption was obtained by measuring the glucose content of the cell culture supernatant with a glucose kit.

A short description of data set [3]: Liposolubility (qualitative observation). The class given is physicochemical.
Data set [4] concerns α-glucosidase. On the set-up: method as in PMID 30236734. Particulars: cited from earlier work.
Data set [5] has as its target α-glucosidase. On the set-up: method as in PMID 28554631. Particulars: constituent of Yingde black tea; read-out: IC50 of α-glucosidase inhibition; cited from earlier work.

Read-outs that look alike come from different tables or passages of the source.

`COc1ccc([C@H]2CC(=O)c3c(cc(O)c(/C=C(/C)CCC=C(C)C)c3O)O2)cc1O` [compound 1, (R, z)-6-(2,6-xylheptane-1,5-dien-1-yl)-5,7-dihydroxy-2-(3-hydroxy-4-methoxyphenyl) chroman-4-one] displayed a melting point of 165 °C. On α-glucosidase [1], inhibition was half-maximal at 7.51 µM (IC50). In the data set with α-glucosidase [2] (Lineweaver-Burk plot), the “Type of α-glucosidase inhibition” value is “non-competitive”. In the data set with α-glucosidase [2] (calculated from secondary replot), the “Binding constant with α-glucosidase” value is 45800 L/mol. The “Reversibility of the inhibition of α-glucosidase” value in the data set with α-glucosidase [2] (enzyme concentration vs enzyme activity at a series of sample dosages) is “reversible”. Besides, the “Number of binding sites with α-glucosidase” value in the data set on α-glucosidase [2] (secondary replot of Y-intercept vs concentration) was “one”. The compound also yielded a Glucose consumption with HepG2 cells of 10.58 ± 0.18 mmol/L. In data set [3], the Liposolubility result is listed as “excellent”.
On α-glucosidase [1], ameridone E [compound 5] showed an IC50 of 81.7 ± 2.72 µM. The Glucose consumption in the data set with HepG2 cells is on record as 9.06 ± 0.15 mmol/L.
For the compound `O=c1c(O)c(-c2ccccc2)oc2cc(O)cc(O)c12` [galangin], in the data set on α-glucosidase [4], the “Number of binding sites with α-glucosidase” value was “one”; the “Type of α-glucosidase inhibition” value is “mixed inhibition of competitive inhibition and non-competitive inhibition”.
Regarding amelliaone A, at α-glucosidase [5], the IC50 was 10.2 µM.
`COc1ccc([C@H]2CC(=O)c3c(cc(O)c(/C=C(\C)CCC=C(C)C)c3O)O2)cc1O` [compound 2, (R,E)-6-(2,6-dimethylhepta−1,5-dien-1-yl)-5,7-dihydroxy-2-(3-hydroxy-4-methoxyphenyl) chroman-4-one] displayed a concentration for half-maximal inhibition (IC50) at α-glucosidase [1] of 33.2 ± 2.21 µM. This compound returned a Glucose consumption with HepG2 cells of 9.40 ± 0.12 mmol/L. Moreover, in data set [3], the Liposolubility result was “almost the same”.
ameridone D [compound 4] yielded an IC50 on α-glucosidase [1] of 76.5 ± 3.52 µM. In the data set with HepG2 cells, the Glucose consumption was 8.30 ± 0.33 mmol/L.
For the compound `CC1=CC[C@H](C)C(c2c(O)cc3occ(-c4ccc(O)cc4)c(=O)c3c2O)=CC1` [compound 3, (S)-6-(4,7-dimethylcyclohepta-1,4-dien-1-yl)-5,7-dihydroxy-3-(4-hydroxyphenyl)−4H-chromen-4-one], the 50% inhibitory concentration (IC50) against α-glucosidase [1] is 56.4 ± 2.11 µM. This compound also came in with a Glucose consumption in the data set with HepG2 cells of 8.98 ± 0.39 mmol/L. In addition, the Liposolubility result in data set [3] is “slightly inferior to the others”.

Broadly, the IC50 is the point on the concentration scale where inhibition reaches its midpoint. As usually defined, the melting point is the temperature of the solid-liquid transition.

The record behind these values is article PMC9686339, “Bioassay-guided isolation of Fenghuang Dancong tea constituents with α-glucosidase inhibition activities” (Frontiers in Nutrition, 2022).
